Measurements reported in patent publication US20030044872A1, “Means of stabilizing compositions and reagents” (priority 1999, published 2003).
Like-named read-outs stand apart in the source and are kept apart here. One block for each compound: values may come before it.

How the values were obtained:
[1] = test system: factor XIII; assay: Inhibiting for factor XIII in absorbed plasma/calcium lactate buffer mixture (Example 4); format: biochemical, bovine; also: key: +: Yes; −: No
Procedure: (§1) To 100 ml of bovine plasma, barium sulfate in 20 w/v % was added. The mixture was mixed for 30 minutes at room temperature, and stirred slowly. Subsequently, the mixture was centrifuged at 5,000×g to remove the barium sulfate precipitate, and absorbed plasma was prepared by adding in the supernatant, and was mixed with 1 ml of N-ethylmaleimide, as inhibitor for Factor XIII. In other words, the composition prepared, contained at least Factor V and fibrinogen. Beside these, the absorbed plasma, without containing 1 mL of N-ethylmaleimide, was prepared and used, as a control.
(§2) Separately, one volume of the absorbed plasma and one volume of 20 mM Hepes-Tris buffer solution (pH 7.0), in which 10 mM of calcium lactate was added, were mixed together to prepare the solution. To the solution, each of substance, stated in Table 1 as below, was added so that mixture might show such a concentration as mentioned in the Table 1. With these mixtures, the inhibiting rate for factor XIII, and a producing rate of the insoluble matter after storage for 24 hours at 10° C. were measured.

[2] = Insoluble precipitation after storage of absorbed plasma mixture with various substances (Example 4); format: physicochemical, bovine; conditions: storage 24 hours at 10° C. Also: key: +: Yes; −: No.
Procedure: as §1, §2

[3] = Insoluble precipitation in three adsorbed plasmas with N-ethylmaleimide (Example 6); format: physicochemical, bovine; set-up: key: +: Insoluble precipitation; −: No insoluble precipitation; conditions: NEM (+)
Procedure: To 100 ml of bovine plasma, barium sulfate in 20 w/v % was added. The mixture was mixed for 30 minutes at room temperature, and stirred slowly. Subsequently, the mixture was centrifuged at 5,000×g to remove the barium sulfate precipitate, and absorbed plasma was prepared by adding in the supernatant, and was mixed with 1 ml of N-ethylmaleimide, as inhibitor for Factor XIII. In other words, the composition prepared, contained at least Factor V and fibrinogen. Beside these, the absorbed plasma, without containing 1 mL of N-ethylmaleimide, was prepared and used, as a control. To study the effect of the present invention, one volume of three types absorbed plasma, prepared in the Example 2 and one volume of 20 mM Hepes-Trisbuffersolution were mixed together, and visually detected both after storing 24 hours at 10° C., and right after freeze-thawed at […]. As clearly seen in the Table 3, none of the adsorbed plasma mixed with N-ethylmaleimide observed the insoluble precipitation, neither in storing at 10° C. or after freeze-thawed treatment. […] Thus, it has become clear that the insoluble precipitation can be inhibited by adding N-ethylmaleimide.

[4] = Influence of N-ethylmaleimide concentration on insoluble precipitation, visually detected (Example 5); format: physicochemical, bovine; set-up: key: +: Insoluble Precipitation; ±: Slightly insoluble precipitation; −: No insoluble precipitate
Procedure: To 100 ml of bovine plasma, barium sulfate in 20 w/v % was added. The mixture was mixed for 30 minutes at room temperature, and stirred slowly. Subsequently, the mixture was centrifuged at 5,000×g to remove the barium sulfate precipitate, and absorbed plasma was prepared by adding in the supernatant, and was mixed with 1 ml of N-ethylmaleimide, as inhibitor for Factor XIII. In other words, the composition prepared, contained at least Factor V and fibrinogen. Beside these, the absorbed plasma, without containing 1 mL of N-ethylmaleimide, was prepared and used, as a control. The absorbed plasma was prepared in the same manner as stated in the Example 2, except that a concentration of N-ethylmaleimide was varied. Separately, one volume of the absorbed plasma and one volume of 20 mM Hepes-Tris buffer solution (pH 7.0), in which 10 mM of calcium lactate was added, were mixed together to prepare the solution, for which a producing rate of the insoluble matter was visually detected both after storing 24 hours at 10° C., and right after freeze-thawed at −20° C. As clearly seen in the Table 2, it has been cleared that N-ethylmaleimide may inhibit insoluble precipitation even with adding 1 mM concentration, however, more preferably 1 mM to 10 mM.

[5] = test system: commercially available control plasma; assay: Reagent performance: coagulation activity / clotting time of control plasma on blood coagulation analyzer Coagre (Example 8); format: biochemical; conditions: reagent with NEM added
Procedure: In order to confirm the performance of each reagent, prepared in the Example 8, the performance was evaluated using Blood coagulation analyzer, Coagre (manufactured by Shimazu, Co., Japan) by measuring clotting time with commercially available control plasma. The performance and stability of the reagent evaluated by using the reagents, prepared and preserved for several days at 10° C., to obtain plasma coagulation activity of control plasma. As clearly seen in the Table 5, clotting time was not varied even adding NEM.

[6] = Stabilizing effect of 1:1 mixtures of NEM with other inhibitors, procedures of Examples 5 to 8 (Example 9); format: physicochemical, bovine
From the text: The procedures stated in the Examples 5 to 8 were repeatedly carried out using the mixtures of NEM with monochloroamide, acrylamide, glycinamide, and dithioprydine, as an inhibiting agent, in an amount of 1:1, as other representative examples.

[7] = substance 1 mM in absorbed plasma + Hepes-Tris/calcium lactate
[8] = mixture of NEM with the inhibitor 1:1, procedures of Examples 5 to 8

Compound: O=C(O)CI [Monoiodo acetic acid]
Inhibiting for factor XIII [1, 7]: +
Precipitation ([2]; substance 1 mM): −

Compound: CN(C)c1c([N+](=O)[O-])cc(N2C(=O)C=CC2=O)cc1[N+](=O)[O-] [N-(4-dimethylamino-3,5-dinitrophenyl) maleimide]
Inhibiting for factor XIII [1, 7]: +
Precipitation ([2]; substance 1 mM): −

Insoluble precipitation ([3]; Adsorbed plasma 1, Storage after freeze-thawing at −20° C.): −
Insoluble precipitation ([3]; Adsorbed plasma 1, Storage at 10° C.): −
Insoluble precipitation ([3]; Adsorbed plasma 2, Storage after freeze-thawing at −20° C.): −
Insoluble precipitation ([3]; Adsorbed plasma 2, Storage at 10° C.): −
Insoluble precipitation ([3]; Adsorbed plasma 3, Storage after freeze-thawing at −20° C.): −
Insoluble precipitation ([3]; Adsorbed plasma 3, Storage at 10° C.): −
Insoluble precipitation ([4]; 0.1 mM, Bovine plasma 1, 24 hours at 10° C.): ±
Insoluble precipitation ([4]; 0.1 mM, Bovine plasma 1, freeze-thawed at −20° C.): +
Insoluble precipitation ([4]; 0.1 mM, Bovine plasma 2, 24 hours at 10° C.): ±
Insoluble precipitation ([4]; 0.1 mM, Bovine plasma 2, freeze-thawed at −20° C.): +
Insoluble precipitation ([4]; 1 mM, Bovine plasma 1, 24 hours at 10° C.): −
Insoluble precipitation ([4]; 1 mM, Bovine plasma 1, freeze-thawed at −20° C.): −
Insoluble precipitation ([4]; 1 mM, Bovine plasma 2, 24 hours at 10° C.): −
Insoluble precipitation ([4]; 1 mM, Bovine plasma 2, freeze-thawed at −20° C.): −
Insoluble precipitation ([4]; 2 mM, Bovine plasma 1, 24 hours at 10° C.): −
Insoluble precipitation ([4]; 2 mM, Bovine plasma 1, freeze-thawed at −20° C.): −
Insoluble precipitation ([4]; 2 mM, Bovine plasma 2, 24 hours at 10° C.): −
Insoluble precipitation ([4]; 2 mM, Bovine plasma 2, freeze-thawed at −20° C.): −
Insoluble precipitation ([4]; 5 mM, Bovine plasma 1, 24 hours at 10° C.): −
Insoluble precipitation ([4]; 5 mM, Bovine plasma 1, freeze-thawed at −20° C.): −
Insoluble precipitation ([4]; 5 mM, Bovine plasma 2, 24 hours at 10° C.): −
Insoluble precipitation ([4]; 5 mM, Bovine plasma 2, freeze-thawed at −20° C.): −
Insoluble precipitation ([4]; 10 mM, Bovine plasma 1, 24 hours at 10° C.): −
Insoluble precipitation ([4]; 10 mM, Bovine plasma 1, freeze-thawed at −20° C.): −
Insoluble precipitation ([4]; 10 mM, Bovine plasma 2, 24 hours at 10° C.): −
Insoluble precipitation ([4]; 10 mM, Bovine plasma 2, freeze-thawed at −20° C.): −
Precipitation ([2]; substance 1 mM): −
Compound: CCN1C(=O)C=CC1=O [N-ethylmaleimide]
Inhibiting for factor XIII [1, 7]: +
clotting time [5]: not varied

Compound: [Cl-].[Na+] [NaCl]
Inhibiting for factor XIII ([1]; substance 10 mM in absorbed plasma + Hepes-Tris/calcium lactate): −

Precipitation ([2]; substance 5%): +
Compound: OC[C@H]1O[C@@](CO)(O[C@H]2O[C@H](CO)[C@@H](O)[C@H](O)[C@H]2O)[C@@H](O)[C@@H]1O [Sucrose]
Inhibiting for factor XIII ([1]; substance 5% in absorbed plasma + Hepes-Tris/calcium lactate): −

Compound: C=CC(N)=O [acrylamide]
stabilizing effect compared with NEM [6, 8]: equal or slightly inferior to NEM

stabilizing effect compared with NEM [6]: equal or slightly inferior to NEM
Compound: NCC(N)=O [glycinamide]

Compound: Bovine serum albumin: Bovine serum albumin, comparison substance added at 1%
Inhibiting for factor XIII ([1]; substance 1% in absorbed plasma + Hepes-Tris/calcium lactate): −
Precipitation ([2]; substance 1%): +

stabilizing effect compared with NEM [6]: equal or slightly inferior to NEM
Compound: dithioprydine

Compound: monochloroamide
stabilizing effect compared with NEM [6, 8]: equal or slightly inferior to NEM
